The test system of series [1] is caterpillars of the owlet moth (Spodoptera frugiperda). Briefly: Spodoptera frugiperda test. The series is classed as in vivo. As to conditions: for destruction: after 3 days, active compound concentration 0.001%, cabbage leaves dipped; for mortality at 0.001 %: Spodoptera frugiperda, in Brassica oleracea, 72 h, read-out: destruction.
The test system of series [2] is mustard beetle larvae (Phaedon cochleariae). Briefly: Phaedon larvae test. As to conditions: for mortality at 0.001 %: Phaedon cochleariae, in Brassica oleracea, 72 h, read-out: destruction.
Series [3] deals with caterpillars of the diamondback moth (Plutella maculipennis). Briefly: Plutella test. The class given is in vivo. As to conditions: for mortality at 0.01 %: Plutella, in Brassica oleracea, 72 h, read-out: destruction. The source says: (§1) Solvent: 7 parts by weight of dimethylformamide
The subject of series [4] is larvae of the green rice leaf hopper (Nephotettix cincticeps). The series is described as follows: Nephotettix test. The series is classed as in vivo. Particulars: 144 h, read-out: destruction.
From the text: as §1

For series [5], the system named is green peach aphids (Myzus persicae). Briefly: Myzus test. The class given is in vivo. As to conditions: for mortality at 0.001 %: Myzus persicae, 24 h, read-out: destruction.
From the text: as §1

The nature of series [6]: Lg. P, octanol/water partition coefficient determined by reversed phase HPLC. The class given is physicochemical. From the text:
*^) Lg. P = Logarithm of the partition coefficient P of the substance
between the solvents octanol and water, determined experimentally by […]

Setting [7] is: after 1 day, active compound concentration 0.001%, infested broad bean seedlings dipped.
The mark [8] stands for this setting: octanol/water, determined experimentally by reversed phase HPLC, read-out: Lg. P (logarithm of the partition coefficient P).

Read-outs that look alike come from different tables or passages of the source.

As to `CCC(C)(C)N1CC([N+](=O)[O-])=C2N(Cc3cnc(Cl)s3)CCN2C1` [(A), reference compound], the destruction entry was “no action” in series [1] and “no action” in series [2] (after 3 days, active compound concentration 0.001%, cabbage leaves dipped).
Regarding `COC(CN1CC([N+](=O)[O-])=C2N(Cc3cnc(Cl)s3)CCN2C1)OC` [(B), reference compound], the mortality at 0.001 % in series [1] and in series [2] was 30% in each case.
In the case of `CCCCCCN1CC([N+](=O)[O-])=C2N(Cc3cnc(Cl)s3)CCN2C1` [(C), reference compound], the mortality at 0.001 % in series [1] was determined as 30%; in series [2], 40%.
For `CN1CC([N+](=O)[O-])=C2N(Cc3cnc(Cl)s3)CCN2C1` [(D), reference compound], the destruction entry in series [1] is reported as “no action”.
For `CCOC(=O)CCN1CC([N+](=O)[O-])=C2N(Cc3ccc(Cl)nc3)CCN2C1` [(E), reference compound], in series [3] (after 3 days, active compound concentration 0.01%, cabbage leaves dipped), the destruction result is “no action”. Besides, the mortality at 0.0001 % in series [4] was 20%. Moreover, the mortality at 0.001 % in series [5] (in Vicia faba) amounted to 10%; in series [2], 20%.
As for `O=[N+]([O-])C1=C2N(Cc3ccc(Cl)nc3)CCN2CN(Cc2ccc(Cl)cc2)C1` [(F), reference compound], the destruction result in series [1] and in series [5] (setting [7]) was “no action” in each case.
Consider `CCOC(=O)CN1CC([N+](=O)[O-])=C2N(Cc3ccc(Cl)nc3)CCN2C1` [(G), reference compound], for which the mortality at 0.001 % in series [1] was determined as 30%.
On to `COC(=O)CN1CC([N+](=O)[O-])=C2N(Cc3ccc(Cl)nc3)CCN2C1` [Example 1, 6,7-dihydro-1-(2-chloropyridin-5-yl-methyl)-6-methoxycarbonyl-methyl-8-nitro-(5H)-imidazolidino-[2,3-f]-pyrimidine], for which the mortality at 0.01 % in series [3] turned out to be 100%. The mortality at 0.001 % in series [5] (in Vicia faba) was determined as 99%; in series [2] it was 100%.
Turning to `O=C(CN1CC([N+](=O)[O-])=C2N(Cc3ccc(Cl)nc3)CCN2C1)Nc1ccccc1` [Example 3], the mortality at 0.001 % in series [2] came to 100%.
In turn, `O=C(O)CCCCCN1CC([N+](=O)[O-])=C2N(Cc3ccc(Cl)nc3)CCN2C1` [Example 4] registered a chromatographic logP in series [6] (reversed phase hplc) of 1.07. Moreover, the mortality at 0.001 % in series [5] (in Vicia faba) is 80%; in series [2], 100%.
With `CCOC(=O)CCCN1CC([N+](=O)[O-])=C2N(Cc3ccc(Cl)nc3)CCN2C1` [Example 5], the chromatographic logP in series [6] (reversed phase hplc) worked out at 0.94.
For the molecule `COC(=O)CN1CC([N+](=O)[O-])=C2N(Cc3cnc(Cl)s3)CCN2C1` [Example 6], in series [3], the mortality at 0.01 % turned out to be 100%. Moreover, in series [4], the mortality at 0.0001 % was found to be 100%. Besides, the mortality at 0.001 % in series [5] (in Vicia faba) amounted to 90%.
For `O=C(CN1CC([N+](=O)[O-])=C2N(Cc3ccc(Cl)nc3)CCN2C1)OCc1ccc(Cl)nc1` [Example 7], the mortality at 0.0001 % in series [4] stood at 100%. Further, in series [2], the mortality at 0.001 % is 100%.
Take `CC(C)OC(=O)CN1CC([N+](=O)[O-])=C2N(Cc3ccc(Cl)nc3)CCN2C1` [Example 9]: the mortality at 0.01 % in series [3] was determined as 100%. For the same molecule, the mortality at 0.001 % in series [1] and in series [2] was 100% each time. Moreover, the mortality at 0.0001 % in series [4] was 100%.
Regarding `Cc1ccc(COC(=O)CN2CC([N+](=O)[O-])=C3N(Cc4ccc(Cl)nc4)CCN3C2)cc1` [Example 10], in series [3], the mortality at 0.01 % was determined as 100%. The mortality at 0.001 % in series [1] and in series [2] was 100% each time. Moreover, the mortality at 0.0001 % in series [4] came out at 100%.
In the case of `CCCCCCCCOC(=O)CN1CC([N+](=O)[O-])=C2N(Cc3ccc(Cl)nc3)CCN2C1` [Example 11], the mortality at 0.01 % in series [3] came to 100%. The mortality at 0.001 % in series [1] and in series [2] was 100% each time.
As to `O=C(CN1CC([N+](=O)[O-])=C2N(Cc3ccc(Cl)nc3)CCN2C1)OCc1ccc(Cl)c(Cl)c1` [Example 12], the mortality at 0.01 % in series [3] is 100%. Moreover, the mortality at 0.001 % in series [1] and in series [2] was 100% throughout.
Turning to `O=C(CN1CC([N+](=O)[O-])=C2N(Cc3ccc(Cl)nc3)CCN2C1)OCc1c(Cl)cccc1Cl` [Example 13], the mortality at 0.01 % in series [3] came to 100%.
In the case of `O=C(CN1CC([N+](=O)[O-])=C2N(Cc3ccc(Cl)nc3)CCN2C1)OCc1ccc(Cl)cc1Cl` [Example 14], the mortality at 0.01 % in series [3] is 100%. The mortality at 0.001 % in series [1] and in series [2] was 100% in each case. In addition, the mortality at 0.0001 % in series [4] is 100%.
`COC(=O)CCCN1CC([N+](=O)[O-])=C2N(Cc3ccc(Cl)nc3)CCN2C1` [Example 15] showed a chromatographic logP in series [6] (reversed phase hplc) of 1.12. The mortality at 0.01 % in series [3] was 100%. Besides, the mortality at 0.001 % worked out at 100% in series [1] and 98% in series [5] (in Vicia faba). In series [4], the mortality at 0.0001 % was found to be 100%.
With `COC(=O)CCCN1CC([N+](=O)[O-])=C2N(Cc3cnc(Cl)s3)CCN2C1` [Example 16], the chromatographic logP in series [6] (setting [8]) was 1.13. The mortality at 0.0001 % in series [4] was 100%. Also, the mortality at 0.001 % in series [5] (setting [7]) turned out to be 90%.
In the case of `CCOC(=O)CCCN1CC([N+](=O)[O-])=C2N(Cc3cnc(Cl)s3)CCN2C1` [Example 17], the chromatographic logP in series [6] (setting [8]) was 1.35. The mortality at 0.01 % in series [3] was 100%. In addition, the mortality at 0.0001 % in series [4] was found to be 100%.
With `COC(=O)CCCCN1CC([N+](=O)[O-])=C2N(Cc3ccc(Cl)nc3)CCN2C1` [Example 19], in series [3], the mortality at 0.01 % came to 100%. The mortality at 0.001 % was found to be 100% in series [1], 95% in series [5] (in Vicia faba) and 100% in series [2].
For the molecule `COC(=O)CCCCCCCN1CC([N+](=O)[O-])=C2N(Cc3cnc(Cl)s3)CCN2C1` [Example 20], the mortality at 0.001 % in series [1], in series [5] (setting [7]) and in series [2] was 100% each time.
In the case of `COC(=O)CCCCCCCN1CC([N+](=O)[O-])=C2N(Cc3ccc(Cl)nc3)CCN2C1` [Example 21], in series [6] (setting [8]), the chromatographic logP was found to be 1.73. Besides, in series [3], the mortality at 0.01 % was found to be 100%.
For the molecule `CC(C)OC(=O)CCN1CC([N+](=O)[O-])=C2N(Cc3ccc(Cl)nc3)CCN2C1` [Example 23], in series [6] (reversed phase hplc), the chromatographic logP amounted to 1.51. In series [2], the mortality at 0.001 % was determined as 100%.
Take `CCOC(=O)C(Cc1ccccc1)N1CC([N+](=O)[O-])=C2N(Cc3ccc(Cl)nc3)CCN2C1` (stereo not shown) [Example 27]: in series [6] (setting [8]), the chromatographic logP worked out at 1.99.
`COC(=O)C(C(C)C)N1CC([N+](=O)[O-])=C2N(Cc3ccc(Cl)nc3)CCN2C1` (stereo not shown) [Example 28] returned a chromatographic logP in series [6] (reversed phase hplc) of 1.55.

These data come from US6177431A, “Tetrahydropyrimidine derivatives” (priority 1996, dated 2001).
